Values quoted from earlier work as cited in patent publication US5243035A, “Sialic acid-containing glycolipid derivatives” (Drug Delivery System Institute, Ltd., priority 1990, dated 1993).

Settings: incorporated into liposome membrane; literature report

In the case of ganglioside GM1, the “resistance of liposome to capture by the reticuloendothelial system” value is listed as “increased resistance to capture by the reticuloendothelial system”.
